Laboratory results: publication PMC7259601 (PLoS ONE, 2020)
Several values for one entry are separate records, joined by “and”; a condition that tells them apart may be missing. Identical values can stand only once.

Legend:
[1] = tested on: guanylyl cyclase (h) (activator effect); experiment: CEREP Diversity Panel; type: biochemical, human; set-up: dose or concentration left out as unconfirmed
Procedure: […]. MAO-A inhibition at 10 μM was 37%, in line with internal data.

[2] = tested on: SAMP8 mice; experiment: Elevated Plus Maze (EPM), SAMP8; type: in vivo, mouse; details: 0.32 or 0.96 mg/kg/day
Procedure: Both male and female mice from the senescence accelerated strain SAMP8 and its control SAMR1 of different ages (see Table S3 for details) were used in these studies. Mice were breed in the animal facilities of the Pharmacy Faculty (University of Barcelona), maintained in a at 22 ± 2 °C controlled temperature in a 12 hr light / dark cycle (lights on at 8:00 am; 300 lux/0 lux) with ad libitum access to food (2018 TEKLAD, Harlan) and water. Male mice were housed individually (males) or in groups of 4-5 animals (females) in plastic colony boxes with a sawdust bedding material. […] SAMR1 mice treated with vehicle were included as a control. […] Drug concentration was calculated weekly in function of body weight and corrected in function of drinking water consumption. Cognitive function was evaluated by NORT, social behavior was evaluated by RI and anxiety and motor function were evaluated by EPM and OF. […]
The EPM consisted of four arms at right angles to each other connected to a central square and maintained elevated 50 cm above the floor. […] The animal was placed facing a closed arm, and its movements were video-recorded for 5 min and analyzed by video-tracking using SMART® (v3.0, PanLab, SLU, Spain).
Elevated Plus Maze (EPM): Movements were video-recorded for 5 min and analyzed by video-tracking using SMART® (v3.0, PanLab, SLU, Spain).

[3] = target: T1, Mouse recombinant KDM1B (Mus musculus, UniProt Q8CIG3); experiment: KDM1B inhibition assay; type: biochemical
T1 construct: gift: Dr. Andrea Mattevi, University of Pavia
Procedure: Mouse recombinant KDM1B protein was kindly provided by Dr. Andrea Mattevi from the University of Pavia. The biochemical activity assay was carried out at room temperature in a similar manner as for KDM1A but using 50 mM HEPES pH 8.5 as the reaction buffer, but with 10 min of incubation of KDM1B in the presence of dimethylated H3K4 peptide at the KMapp of KDM1B.

[4] = tested on: platelet (PLT) levels; experiment: Rat pharmacodynamics: hematology, 5 day treatment and recovery
Text: KDM1A is involved in hematopoiesis, and it is well known that KDM1A knockdown or KDM1A inhibitors can halt hematopoiesis when administered at sufficiently high doses and during sufficient time^(39). […] Data from N = 6 rats are represented as mean ± SEM.
Male Wistar rats (N = 3 or 6 per dose level) of 10-12 weeks of age were maintained in air and temperature controlled cages with regular supply of water and food. A maximum of […] were raised. Before first administration, the animals were marked on the tail for identification. […] Animal of each treatment group were sampled for blood on days 1, 3, 5, 8, 10, 12, 15, 17 and 19. Blood samples of days 1, 3 and 5 were obtained just one hr after the compound administration. Blood samples were obtained from leg saphenous vein using recipients treated with EDTA to avoid coagulation. The last day of the study, rats were euthanized under CO2 saturated atmosphere and blood was extracted by cardiac puncture and collected in recipients containing EDTA.
Blood samples obtained from leg saphenous vein or cardiac puncture were analyzed on a Diatron hematology analyzer at SEA (Plataforma Recerca Aplicada Animal de Laboratori, Parc Científic de Barcelona).
Hematology parameters were calculated as mean ± SEM and represented as a timecourse.

[5] = target: KDM1A (Homo sapiens, UniProt O60341); experiment: Chemoprobe based KDM1A target engagement in THP-1 cells; type: cell-based; set-up: Native protein extracts of cells or tissues were obtained in presence of 25 nM OG-881 chemoprobe; endogenous in cells; host or cells: THP-1; details: THP-1 cells treated 24 hr
Procedure: Native protein extracts of cells or tissues were obtained in presence of 25 nM OG-881 chemoprobe according the protocol described in Mascaró et al..
Luminescent ELISA: for quantification of total amount of KDM1A protein (TOTAL KDM1A), Luminunc Plates Maxisorp (NUNC; #436110) were coated with a monoclonal anti-KDM1A antibody (Abcam; #ab53269) at 2 µg/mL in PBS. For quantification of the fraction not bound to inhibitor (FREE KDM1A), plates were coated with streptavidin (Promega Biotech Ibérica; #Z7041) at 10 µg/mL in PBS. Coating was performed at 4°C O/N. Wells were washed 3 times in PBS, 0.1% Tween-20 and blocked with PBS-BSA 1% (Sigma; #A3059) for 2 hr. A KDM1A calibration curve of full length rKDM1A (Active Motif; #31334) diluted in PBS was included in each plate. Plates were then incubated 1 hr at RT and washed 5 times. […] Plates were centrifuged during 30 sec to 1,500 x g, shaken for 1 min at 100rpm and incubated inside the micropate reader (Infinite 200, Tecan) for 3 min at 25 °C. The relative luminescence units (RLU) readouts were acquired using a 1000 msec integration time and 150 msec settle time.
All assays were run as triplicate technical replicates (n = 3). After raw data processing (robust elimination of outliers according to Grubbs criteria and subtraction of blank signal on technical replicates), the target engagement was calculated as […]

T1 sequence (Q8CIG3 whole entry): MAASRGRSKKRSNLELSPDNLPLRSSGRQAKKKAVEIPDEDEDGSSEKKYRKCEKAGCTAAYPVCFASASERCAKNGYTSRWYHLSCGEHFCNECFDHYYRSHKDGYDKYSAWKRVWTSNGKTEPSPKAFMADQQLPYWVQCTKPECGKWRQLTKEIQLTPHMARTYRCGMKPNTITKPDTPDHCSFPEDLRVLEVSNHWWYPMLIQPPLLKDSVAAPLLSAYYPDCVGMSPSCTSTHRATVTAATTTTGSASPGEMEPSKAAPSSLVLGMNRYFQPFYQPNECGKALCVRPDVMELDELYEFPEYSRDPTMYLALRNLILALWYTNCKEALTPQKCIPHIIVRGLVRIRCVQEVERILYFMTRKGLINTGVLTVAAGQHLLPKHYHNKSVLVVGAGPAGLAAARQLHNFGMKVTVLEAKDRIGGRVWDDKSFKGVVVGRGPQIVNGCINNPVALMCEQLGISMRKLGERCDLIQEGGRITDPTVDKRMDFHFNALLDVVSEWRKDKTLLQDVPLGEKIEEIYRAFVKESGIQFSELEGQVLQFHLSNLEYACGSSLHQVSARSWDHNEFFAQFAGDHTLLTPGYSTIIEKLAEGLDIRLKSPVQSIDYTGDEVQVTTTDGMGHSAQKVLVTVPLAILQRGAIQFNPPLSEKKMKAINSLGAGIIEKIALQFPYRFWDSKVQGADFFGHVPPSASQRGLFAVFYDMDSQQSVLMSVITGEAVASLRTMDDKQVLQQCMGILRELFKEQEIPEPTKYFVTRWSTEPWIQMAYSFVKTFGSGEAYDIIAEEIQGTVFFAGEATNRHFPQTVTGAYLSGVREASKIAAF

Nc1nnc(CN[C@@H]2C[C@H]2c2ccc(OCc3ccccc3)cc2)o1 [ORY-2001, vafidemstat]
% inhibition [1]: 1% | time in the open arms of the EPM [2]: not significantly modified | inhibition at 10 µM [3]: 7% | dose limiting toxicity in 5 day MTD studies ([4]; hematopoietic impact): reversible and dose dependent impact on platelets | maximum PLT rebound ([4]; rats, 5 day treatment, 14 day recuperation): ~12 days | EC50 of PLT reduction ([4]; rats, p.o. gavage, 5 day treatment): ~ 0.5 mg/kg | EC50 [5]: ~1 nM and 1 nM
